In brackets after ≈: the same amount, converted by molar mass. Read-outs that look alike come from different tables or passages of the source.

Series [1] has as its system lipoprotein lipase (LPL) gene. The experiment in a line: LPL mRNA elevating action (RT-PCR quantification of LPL mRNA in C2Cl2 cells). The class given is cell-based, mouse. The conditions noted are these: Mus musculus, 24 h, compound 10 μM, ratio relative to the amount of LPL mRNA in cells with DMSO only, read-out: Rate of increase in LPL mRNA. In short, it runs like this: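 Mouse striated-muscle C2Cl2 cells in DMEM with 10% FBS exposed to compounds at 10 μM for 24 h. LPL mRNA quantified by RT-PCR and real-time PCR (20 cycles), expressed as ratio to DMSO-only cells set at 1.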

Series [2] is described as follows: Solubility in gastric juice or intestinal juice model fluid (precipitation method using DMSO). Particulars: room temperature. The class given is physicochemical. In outline:
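Compound in DMSO added to JP disintegration test fluid 1 (pH 1.2) or fluid 2 (pH 6.8) and shaken 24 h at room temperature. After filtration, dissolved concentration (μg/mL) determined by UV absorbance against compound calibration curves.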

Setting [3] is: pH 1.2, simulated gastric fluid, kinetic from dmso stock, 1st fluid for Disintegration Test of Japanese Pharmacopoeia (pH: 1.2), read-out: Solubility (μg/mL) 1st fluid.
The mark [4] stands for this setting: pH 6.8, kinetic from dmso stock, 2nd fluid for Disintegration Test of Japanese Pharmacopoeia (pH: 6.8), read-out: Solubility (μg/mL) 2nd fluid.

Take `COc1cc(OCc2ncc(C(F)(F)F)cc2F)ccc1-c1cnc(C2CCCC2)[nH]1` [Example 365]: the melting point (commonly the temperature of the solid-liquid transition) lay in the range of 97 to 102 °C. In series [1], the fold induction at 10 µM stood at 3.02. For the same molecule, in series [2] (setting [3]), the solubility at 24 h is 77.9 µg/mL (≈ 179 µM). Moreover, the solubility at 24 h in series [2] (setting [4]) amounted to 31.2 µg/mL (≈ 71.7 µM).

`COc1cc(OCc2ncc(C(F)(F)F)cc2F)ccc1-c1[nH]c(C2CCCC2)nc1Cl` [Example 367] registered a melting point of 139 to 142 °C. Further, the fold induction at 10 µM in series [1] stood at 2.54. In addition, in series [2] (setting [3]), the solubility at 24 h was 82.1 µg/mL (≈ 175 µM). For the same molecule, the solubility at 24 h in series [2] (setting [4]) is under 0.3 µg/mL.

`COc1cc(-c2[nH]c(C3CCCC3)nc2Cl)ccc1OCc1ncc(C(F)(F)F)cc1F` [Example 368] had a melting point of 158 to 163 °C. Also, the fold induction at 10 µM in series [1] was found to be 2.62. Also, in series [2] (setting [3]), the solubility at 24 h is 82.9 µg/mL (≈ 176 µM). In addition, in series [2] (setting [4]), the solubility at 24 h worked out at 0.5 µg/mL (≈ 1.06 µM).

For the molecule `Fc1ccc(-c2ncc(-c3ccc(OCc4ncc(C(F)(F)F)cc4F)cc3F)[nH]2)cn1` [Example 369], the melting point lay in the range of 167 to 172 °C. Further, in series [1], the fold induction at 10 µM was found to be 1.26. Also, in series [2] (setting [3]), the solubility at 24 h is 35.9 µg/mL (≈ 79.7 µM). Besides, in series [2] (setting [4]), the solubility at 24 h was under 0.3 µg/mL.

The molecule `Fc1ccc(-c2nc(Cl)c(-c3ccc(OCc4ncc(C(F)(F)F)cc4F)cc3F)[nH]2)cn1` [Example 370] gave a melting point of 144 to 146 °C. Also, the fold induction at 10 µM in series [1] is 3.31. Further, in series [2] (setting [3]), the solubility at 24 h is 1.6 µg/mL (≈ 3.3 µM). For the same molecule, the solubility at 24 h in series [2] (setting [4]) is 1.8 µg/mL (≈ 3.71 µM).

Take `COc1cc(OCc2ncc(C(F)(F)F)cc2F)ccc1-c1[nH]c(C2CCC2)nc1Cl` [Example 373]: the melting point was in the range of 155 to 157 °C. Moreover, the fold induction at 10 µM in series [1] turned out to be 3.03. Further, in series [2] (setting [3]), the solubility at 24 h is 88.3 µg/mL (≈ 194 µM). For the same molecule, in series [2] (setting [4]), the solubility at 24 h was under 0.3 µg/mL.

The molecule `COc1cc(-c2[nH]c(C3CCC3)nc2Cl)ccc1OCc1ncc(C(F)(F)F)cc1F` [Example 374] came in with a melting point of 159 to 162 °C. In addition, the fold induction at 10 µM in series [1] was determined as 2.6. Moreover, the solubility at 24 h in series [2] (setting [3]) is 88.3 µg/mL (≈ 194 µM). Besides, in series [2] (setting [4]), the solubility at 24 h was determined as 1.2 µg/mL (≈ 2.63 µM).

`COc1cc(OCc2ncc(C(F)(F)F)cc2F)ccc1-c1[nH]c(C2CC2)nc1Cl` [Example 377] gave a melting point of 151 to 154 °C. Also, in series [1], the fold induction at 10 µM stood at 1.88. For the same molecule, in series [2] (setting [3]), the solubility at 24 h was 84.6 µg/mL (≈ 191 µM). Further, the solubility at 24 h in series [2] (setting [4]) amounted to 0.7 µg/mL (≈ 1.58 µM).

Consider `COc1cc(-c2[nH]c(C3CC3)nc2Cl)ccc1OCc1ncc(C(F)(F)F)cc1F` [Example 378], for which the melting point is 161 to 165 °C (dec.). In addition, in series [1], the fold induction at 10 µM worked out at 1.24. Moreover, the solubility at 24 h in series [2] (setting [3]) was 81.6 µg/mL (≈ 185 µM). Besides, the solubility at 24 h in series [2] (setting [4]) is 7.5 µg/mL (≈ 17 µM).

`COc1cc(OCc2ncc(C(F)(F)F)cc2F)ccc1-c1cnc(C(C)(C)C)[nH]1` [Example 379]: the melting point lay in the range of 141 to 144 °C. In series [1], the fold induction at 10 µM turned out to be 2.87. In addition, the solubility at 24 h in series [2] (setting [3]) is 79.9 µg/mL (≈ 189 µM). For the same molecule, the solubility at 24 h in series [2] (setting [4]) amounted to 72.9 µg/mL (≈ 172 µM).

As to `COc1cc(-c2cnc(C(C)(C)C)[nH]2)ccc1OCc1ncc(C(F)(F)F)cc1F` [Example 380], the melting point lay within 178 to 182 °C. For the same molecule, the fold induction at 10 µM in series [1] turned out to be 1.18. The solubility at 24 h in series [2] (setting [3]) is 81.2 µg/mL (≈ 192 µM). In addition, the solubility at 24 h in series [2] (setting [4]) came out at 63.7 µg/mL (≈ 150 µM).

In turn, `COc1cc(OCc2ncc(C(F)(F)F)cc2F)ccc1-c1cnc(C(C)C)[nH]1` [Example 381] displayed a melting point of 84 to 89 °C. Also, in series [1], the fold induction at 10 µM came to 2.19. For the same molecule, the solubility at 24 h in series [2] (setting [3]) is 78.2 µg/mL (≈ 191 µM). Further, the solubility at 24 h in series [2] (setting [4]) was 66.9 µg/mL (≈ 163 µM).

For `COc1cc(OCc2ncc(C(F)(F)F)cc2F)ccc1-c1[nH]c(C(C)(C)C)nc1Cl` [Example 383], the melting point was in the range of 170 to 172 °C. Moreover, the fold induction at 10 µM in series [1] came out at 2.16. Further, the solubility at 24 h in series [2] (setting [3]) was 85.1 µg/mL (≈ 186 µM). Moreover, in series [2] (setting [4]), the solubility at 24 h was under 0.3 µg/mL.

Molecule `COc1cc(-c2[nH]c(C(C)(C)C)nc2Cl)ccc1OCc1ncc(C(F)(F)F)cc1F` [Example 384] registered a melting point of 179 to 184 °C. In addition, the fold induction at 10 µM in series [1] came out at 1.84. For the same molecule, the solubility at 24 h in series [2] (setting [3]) is 86.4 µg/mL (≈ 189 µM). The solubility at 24 h in series [2] (setting [4]) came out at 1.2 µg/mL (≈ 2.62 µM).

Source of the values: patent publication US10570117B2, “Phenylimidazole compound” (Otsuka Pharmaceutical Factory, Inc., priority 2015, dated 2020).
